Data as given in US11058668B2 (EIDOS THERAPEUTICS, INC., priority 2018, dated 2021).
Several values for one entry are separate records, joined by “and”; a condition that tells them apart may be missing. Equal entries are not always repeated. Where two headings read alike, the source gives them in different places.

Experiments:
tetrameric TTR [1] = molecular target: T1, tetrameric TTR (Homo sapiens, UniProt P02766); experiment: Phase 2 study, fluorescence probe (FPE) assay ex vivo; type: in vivo; design: monitoring TTR serum concentrations in trial participants; from tissue; host or cells: serum / plasma of ATTR-CM patients
Experimental: (§1) Aliquots of each serum sample are plated in 96 well plates. The fluorescence changes (λex=328 nm and λem=384 nm) after addition of probe are monitored every 15 min using a fluorescent capable microplate for 6 hr at RT.
(§2) The phase 2 clinical study was performed essentially as described in Example 3. A total of 49 patents were included instead of 45: 16 receiving 400 mg bid; 16 receiving 800 mg bid; and 17 receiving placebo.
(§3) TTR stabilization was measured ex vivo using the FPE and Western blot assays described at the beginning of the examples section. TTR stabilization was measured in vivo by monitoring TTR serum concentrations in trial participants.

tetrameric TTR [2] = molecular target: T2, tetrameric TTR (Homo sapiens, UniProt P02766, V50M); experiment: as above; type: in vivo; conditions: individual with V30M TTR mutation, 800 mg b.i.d.
T2 construct: monitoring TTR serum concentrations in trial participants; from tissue; host or cells: serum / plasma of ATTR-CM patients
Experimental: as §1, §2, §3

tetrameric TTR [3] = molecular target: T2, tetrameric TTR; experiment: Phase 2 study, Western blot of tetrameric TTR ex vivo; type: in vivo; conditions: individual with V30M TTR mutation, 800 mg b.i.d.
Experimental: Blood plasma samples from the subject are diluted with acidification buffer (sodium acetate, KCl, EDTA, DTT, pH about 4.0) for both the 0 and 72 hour time point. Time 0 hr samples are directly cross-linked with glutaraldehyde, and then quenched. 72 hr samples are incubated at room temperature for 72 hr and then cross-linked and quenched by the same protocol. All samples are then denatured by adding SDS gel loading buffer and boiled prior to gel loading. Each sample is separated in SDS-PAGE gels and analyzed by immunoblotting using anti-TTR antiserum (Polyclonal Rabbit Anti-Human Prealbumin. DAKO Cat# A0002). The density of all TTR bands are quantified using infrared LICOR imaging system or Fluorescence Imaging system and reported. Normalization by IgG band using LICOR 925-32232 or Invitrogen 84546.

[4] = molecular target: T3, human serum albumin (HSA) (Homo sapiens, UniProt P02768); experiment: biochemical
T3 sequence (P02768 25-609): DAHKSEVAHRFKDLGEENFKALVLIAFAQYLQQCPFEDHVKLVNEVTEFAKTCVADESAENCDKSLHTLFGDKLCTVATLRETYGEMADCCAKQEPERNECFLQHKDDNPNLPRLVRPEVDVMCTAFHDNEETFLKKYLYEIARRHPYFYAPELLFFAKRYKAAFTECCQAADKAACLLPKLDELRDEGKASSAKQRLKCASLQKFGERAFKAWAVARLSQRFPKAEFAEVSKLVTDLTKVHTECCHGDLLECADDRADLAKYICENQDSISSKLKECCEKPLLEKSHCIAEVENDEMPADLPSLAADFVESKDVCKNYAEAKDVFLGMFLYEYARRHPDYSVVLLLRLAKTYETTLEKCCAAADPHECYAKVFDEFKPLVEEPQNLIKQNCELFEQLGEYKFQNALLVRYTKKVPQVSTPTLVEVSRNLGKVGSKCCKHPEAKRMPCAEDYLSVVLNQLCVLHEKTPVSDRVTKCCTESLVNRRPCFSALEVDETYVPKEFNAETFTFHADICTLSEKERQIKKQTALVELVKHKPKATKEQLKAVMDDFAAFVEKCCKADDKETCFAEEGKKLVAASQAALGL
Experimental: (§6) Isothermal Titration Calorimetry (ITC). Binding experiments were performed using MicroCal PEAQ-ITC at 25° C. […] 19 injections of ligand (2.0 μL each) were injected into the ITC cell (at 25° C.) to the point that TTR was fully saturated with ligand. Calorimetric data were plotted and fitted using the standard single-site binding model.

TTR [5] = experiment: Phase 2 study in ATTR-CM patients, serum TTR concentration (ARUP Prealbumin assay); type: in vivo, human; conditions: for Blood Serum TTR Concentration, Average Change: V122I; for Blood Serum TTR Concentration, Average Change (baseline to day 28): all genotypes, ATTR-CM patients
Experimental: (§4) Screening and randomization will be followed by a 28-day blinded, placebo-controlled treatment period. Approximately 45 subjects are planned to enroll in the Phase 2 study.
(§5) An ARUP Prealbumin assay was also used to analyze TTR blood serum concentration in the MAD cohorts tested. ARUP analyzes samples for prealbumin using the prealbumin reagent kit provided by Roche Diagnostics and run on the Roche Diagnostics c702 module. Lowest reportable limit is 3 mg/dL.
as §2, §3

TTR [6] = molecular target: T4, TTR (Homo sapiens, UniProt P02766, V50M); experiment: as above; type: in vivo; conditions: 800 mg b.i.d., V30M
T4 construct: monitoring TTR serum concentrations in trial participants; from tissue; host or cells: serum / plasma of ATTR-CM patients
Experimental: as §4, §5, §2, §3

TTR [7] = molecular target: TTR (Homo sapiens, UniProt P02766); experiment: Isothermal titration calorimetry (ITC) with TTR in buffer; conditions: 25° C.
Experimental: as §6

[8] = Phase 1 (AG10-001) single ascending dose pharmacokinetics; type: in vivo, human; conditions: for Cmax / Tmax / concentration at 24 hr / AUC(0-t) / AUC(0-inf) / half-life: human, plasma; for concentration at 24 hr: read-out: C24
Experimental: Quantitation was performed using a weighted 1/x^2 linear least squares regression analysis generated from calibration standards prepared on the day of extraction.
One of the SAD cohorts received two 300 mg doses, one under fasted conditions and the other following a high fat test meal after an appropriate washout period.

[9] = pKa values of stabilizers; type: physicochemical; conditions: carboxylic acid group
tetrameric TTR [10] = molecular target: T1, tetrameric TTR; experiment: Fluorescent Probe Exclusion (FPE) assay on serum of Phase 1 subjects; type: in vivo; design: from tissue; host or cells: serum / blood plasma of dosed healthy human volunteers; conditions: single dose of 300 mg and 800 mg
[11] = molecular target: T3, human serum albumin (HSA); experiment: Gel filtration and dialysis binding to human serum albumin; design: albumin from human serum; Sigma Aldrich, catalog no.: A3782; purchased Sigma Aldrich A3782; host or cells: human serum; conditions: 30 μM compound, 600 μM albumin
Experimental: The concentration of HSA (i.e. concentration at time zero) was also determined using NanoDrop™ (based on calibration curves of known HAS concentrations). […] The concentration of test compounds in these fractions (i.e. conc. at time zero) was evaluated using HPLC (based on calibration curves of known concentration of test compounds). 500 μL of each HSA/test compound samples was then added to a Slide-A-Lyzer Dialysis Cassette G2 (3.5K MWCO, Thermo Scientific, catalog no. P187722). The dialysis Cassettes were placed in 100 ml of assay buffer and stirred at room temperature. After 24 hr, the samples were removed from dialysis cassette and the volume was measured. The concentration of HAS and test compounds were determined using NanoDrop™ and HPLC as described above.

[12] = ATTR-CM patients, FPE vs plasma concentration
[13] = both sexes, oral, 300 mg, SAD Cohort 3, 300 mg, Fasted, geometric mean
[14] = both sexes, oral, 300 mg, SAD Cohort 3, 300 mg, Fed (high fat test meal), geometric mean
[15] = both sexes, po, 50 mg, single oral dose 50 mg AG10 HCl, healthy subjects, geometric mean ± SD
[16] = both sexes, po, 150 mg, single oral dose 150 mg AG10 HCl, healthy subjects, geometric mean ± SD
[17] = both sexes, po, 300 mg, single oral dose 300 mg AG10 HCl, healthy subjects, geometric mean ± SD
[18] = both sexes, po, 800 mg, single oral dose 800 mg AG10 HCl, healthy subjects, geometric mean ± SD

## Cc1n[nH]c(C)c1CCCOc1cc(C(=O)O)ccc1F [AG10, 3-(3-(3,5-dimethyl-1H-pyrazol-4-yl)propoxy)-4-fluorobenzoic acid]
Tetrameric TTR [1]; 400 mg b.i.d. and 800 mg b.i.d., trough and peak time points
  target engagement by day 14 (fluorescence probe assay): near full target engagement
Tetrameric TTR [1]; [12]
  blood plasma concentration at which full target engagement occurs: about 7.5 μM
  blood plasma concentration at which significant target engagement occurs: ~5 µM
Tetrameric TTR [2]
  target engagement at day 14 (FPE): near complete target engagement
Tetrameric TTR [3]
  TTR stabilization at day 28 (western blot): near complete TTR stabilization
[4]
  Kd: ~8 µM
TTR [5]; 400 mg b.i.d.
  Blood Serum TTR Concentration, Average Change: 51%
  Blood Serum TTR Concentration, Average Change (baseline to day 28): 36%
TTR [5]; 800 mg b.i.d.
  Blood Serum TTR Concentration, Average Change: 90%
  Blood Serum TTR Concentration, Average Change (baseline to day 28): 50%
TTR [5]; after 28 days of treatment, each active cohort (400 mg and 800 mg b.i.d.)
  share of cohort with serum TTR concentrations within normal range (20-40 mg/dL): 100%
TTR [6]
  Blood Serum TTR Concentration, Average Change: 61%
TTR [7]
  ΔH: -13.60 kcal/mol and -13.6 kcal/mol
[8]; 300 mg, fed versus fasted state
  food effect on the pharmacokinetics: minimal food effect
[8]; SAD cohorts 1-4, 50-800 mg AG10 HCl oral
  mean Tmax: under one
[8]; [13]
  Cmax: 15.1 µM
  Tmax: 0.707 h
  concentration at 24 hr: 2.19 µM
[8]; [14]
  Cmax: 10.2 µM
  Tmax: 1.59 h
  concentration at 24 hr: 2.69 µM
[8]; both sexes, oral, 300 mg, SAD Cohort 3, 300 mg, Fed (high fat test meal), geometric mean, read-out: AUC0-24
  AUC(0-t): 111 µM·h
[8]; both sexes, po, 50 mg
  AUC(0-inf): 97.1 ± 12.1 µM·h
[8]; [15]
  Cmax: 7.2 ± 0.72 µM
  Tmax: 0.891 ± 0.736 h
  concentration at 24 hr: 1.05 ± 0.13 µM
[8]; both sexes, po, 50 mg, single oral dose 50 mg AG10 HCl, healthy subjects, geometric mean ± SD, read-out: AUC0-24
  AUC(0-t): 58.9 ± 4.09 µM·h
[8]; both sexes, po, 50 mg, single oral dose 50 mg AG10 HCl, healthy subjects, geometric mean ± SD, read-out: AUClast
  AUC(0-t): 95 ± 11.8 µM·h
[8]; both sexes, po, 50 mg, read-out: T1/2 (converted)
  half-life: 25 ± 2.91 h
[8]; both sexes, po, 150 mg
  AUC(0-inf): 168 ± 46.8 µM·h
[8]; [16]
  Cmax: 11.3 ± 4.76 µM
  Tmax: 0.849 ± 0.97 h
  concentration at 24 hr: 1.78 ± 0.465 µM
[8]; both sexes, po, 150 mg, single oral dose 150 mg AG10 HCl, healthy subjects, geometric mean ± SD, read-out: AUC0-24
  AUC(0-t): 93 ± 16.8 µM·h
[8]; both sexes, po, 150 mg, single oral dose 150 mg AG10 HCl, healthy subjects, geometric mean ± SD, read-out: AUClast
  AUC(0-t): 166 ± 46 µM·h
[8]; both sexes, po, 150 mg, read-out: T1/2 (converted)
  half-life: 25.1 ± 3.58 h
[8]; both sexes, po, 300 mg
  AUC(0-inf): 191 ± 77 µM·h
[8]; [17]
  Cmax: 15.1 ± 3.6 µM
  Tmax: 0.707 ± 0.274 h
  concentration at 24 hr: 2.19 ± 0.435 µM
[8]; both sexes, po, 300 mg, single oral dose 300 mg AG10 HCl, healthy subjects, geometric mean ± SD, read-out: AUC0-24
  AUC(0-t): 100 ± 9.76 µM·h
[8]; both sexes, po, 300 mg, single oral dose 300 mg AG10 HCl, healthy subjects, geometric mean ± SD, read-out: AUClast
  AUC(0-t): 186 ± 73.8 µM·h
[8]; both sexes, po, 300 mg, read-out: T1/2 (converted)
  half-life: 22 ± 5.94 h
[8]; both sexes, po, 800 mg
  AUC(0-inf): 414 ± 87.5 µM·h
[8]; [18]
  Cmax: 37.8 ± 11.3 µM
  Tmax: 0.794 ± 0.258 h
  concentration at 24 hr: 4.51 ± 0.565 µM
[8]; both sexes, po, 800 mg, single oral dose 800 mg AG10 HCl, healthy subjects, geometric mean ± SD, read-out: AUC0-24
  AUC(0-t): 176 ± 27.7 µM·h
[8]; both sexes, po, 800 mg, single oral dose 800 mg AG10 HCl, healthy subjects, geometric mean ± SD, read-out: AUClast
  AUC(0-t): 410 ± 81.7 µM·h
[8]; both sexes, po, 800 mg, read-out: T1/2 (converted)
  half-life: 26.8 ± 8.48 h
[8]; both sexes, po, read-out: elimination half-life
  half-life: 22 to 27 h
[8]; oral, 300 mg, SAD Cohort 3, 300 mg, Fasted, geometric mean, read-out: AUC0-24
  AUC(0-t): 99.6 µM·h
[9]
  pKa: 4.13
Tetrameric TTR [10]
  stabilization of TTR at peak concentrations (FPE assay): complete stabilization
[11]
  concentration bound to HSA following dialysis vs buffer for 24 hr: 7.8 ± 0.1 µM
  concentration bound to albumin at time 0 (immediately after gel filtration): 18.3 ± 0.98 µM
